Assay results published in ChEMBL document CHEMBL4152332, “Discovery and synthesis of novel magnolol derivatives with potent anticancer activity in non-small cell lung cancer” (Eur J Med Chem, 2018).

What was measured:
HCC827 = assay: Antiproliferative activity against human HCC827 cells after 72 hrs by MTT assay; format: functional, cell-based; settings: HCC827, 72 h
NCI-H460 = assay: Antiproliferative activity against human H460 cells after 72 hrs by MTT assay; format: functional, cell-based; settings: NCI-H460, 72 h
NCI-H1975 = assay: Antiproliferative activity against human NCI-H1975 cells after 72 hrs by MTT assay; format: functional, cell-based; settings: NCI-H1975, 72 h
NCI-H441 = assay: Antiproliferative activity against human H441 cells after 72 hrs by MTT assay; format: functional, cell-based; settings: NCI-H441, 72 h
PC-9 = assay: Antiproliferative activity against human PC9 cells after 72 hrs by MTT assay; format: functional, cell-based; settings: PC-9, 72 h
NCI-H1650 = assay: Antiproliferative activity against human NCI-H1650 cells after 72 hrs by MTT assay; format: functional, cell-based; settings: NCI-H1650, 72 h
[1] = Antiproliferative activity against human SPC-A1 cells after 72 hrs by MTT assay; format: functional, cell-based; settings: SPCA1, 72 h
[2] = Apparent aqueous solubility of the compound by HPLC analysis; format: physicochemical; settings: aqueous solution
NCI-H358 = assay: Antiproliferative activity against human NCI-H358 cells after 72 hrs by MTT assay; format: functional, cell-based; settings: NCI-H358, 72 h
A549 = assay: Antiproliferative activity against human A549 cells after 72 hrs by MTT assay; format: functional, cell-based; settings: A549, 72 h

| Structure (SMILES) | IC50 (HCC827) [µM] | IC50 (NCI-H460) [µM] | IC50 (NCI-H1975) [µM] | also measured |
| --- | --- | --- | --- | --- |
| C=CCc1ccc(O)c(-c2cc(CC=C)cc(CN3CCN(C)CC3)c2O)c1 | > 20 | > 20 | > 20 | – |
| C=CCc1cc(-c2cc(/C=C/CO)ccc2O)c(O)c([C@@H]2C=C(C)CC[C@H]2C(C)C)c1 | > 40 | > 40 | > 40 | – |
| C=CCc1ccc(O)c(-c2cc(CC=C)cc(CN3CCOCC3)c2O)c1 | > 20 | > 20 | > 20 | – |
| C=CCc1ccc(O)c(-c2cc(CC=C)cc(CN3CCSCC3)c2O)c1 | > 20 | > 20 | > 20 | – |
| C=CCc1cc(-c2cc(CC(O)CO)ccc2O)ccc1O (centres undefined) [MAGNOLIGNAN] | > 40 | > 40 | > 40 | – |
| C=CCc1ccc(O)c(-c2cc(CC=C)cc(CN3CCCC(C(=O)OCC)C3)c2O)c1 (centres undefined) | > 20 | > 20 | > 20 | – |
| C=CCc1cc(-c2cc(/C=C/CO)ccc2O)ccc1O | 33.6 | 31.6 | 34.5 | – |
| C=CCc1ccc(O)c(-c2cc(CC=C)cc(CN3CCC(CN)CC3)c2O)c1 | > 20 | > 20 | > 20 | – |
| C=CCc1ccc(O)c(-c2cc(CC=C)cc(CN3CCN(CCCC)CC3)c2O)c1 | > 20 | > 20 | > 20 | – |
| C=CCc1ccc(O)c(-c2cc(/C=C/CO)ccc2O)c1 | > 40 | > 40 | > 40 | – |
| C=CCc1ccc(O)c(-c2cc(CC=C)cc(CN3CCN(CC=C)CC3)c2O)c1 | > 20 | > 20 | > 20 | – |
| C=CCc1ccc(O)c(-c2cc(CC=C)cc(CN3CCC(C(=O)OCC)CC3)c2O)c1 | > 20 | > 20 | > 20 | – |
| C=CCc1cc(-c2cc(O)ccc2O)ccc1O [MAGNATRIOL B] | > 40 | > 40 | > 40 | – |
| C=CCc1cc(-c2ccc(O)c(CC=C)c2)c(O)c([C@@H]2C=C(C)CC[C@H]2C(C)C)c1 | 31.4 | 27.6 | 26.7 | – |
| C=CCc1ccc(O)c(-c2cc(CC(O)CO)ccc2O)c1 (centres undefined) | > 40 | > 40 | > 40 | – |
| C=CCc1ccc(O)c(-c2cc(CC=C)cc(CN3CCC(CNC(=O)OC(C)(C)C)CC3)c2O)c1 | > 20 | > 20 | > 20 | – |
| C=CCc1ccc(O)c(-c2cc(CC=C)cc(CN3CCCC(NC(=O)C=C)C3)c2O)c1 (centres undefined) | > 20 | > 20 | > 20 | – |
| C=CCc1cc(-c2cc(C=O)ccc2O)ccc1O [MAGNALEDEHYDE E] | > 40 | > 40 | > 40 | – |
| C=CCc1ccc(O)c(-c2cc(C(=O)O)ccc2O)c1 | > 40 | > 40 | > 40 | – |
| C=CCc1ccc(O)c(-c2cc(CC=C)cc(CN3CCNCC3)c2O)c1 | > 20 | > 20 | > 20 | – |
| C=CCc1ccc(O)c(-c2ccc(O)c(/C=C/C)c2)c1 | 26.4 | 25.3 | 25.8 | – |
| C=CCc1cc(-c2cc(/C=C/C=O)ccc2O)ccc1O [MAGNALEDEHYDE B] | 35.5 | 32.4 | 34.1 | – |
| C=CCc1cc(-c2cc(CC=C)cc([C@@H]3C=C(C)CC[C@H]3C(C)C)c2O)c(O)c([C@@H]2C=C(C)CC[C@H]2C(C)C)c1 | > 40 | > 40 | > 40 | – |
| C=CCc1ccc(O)c(-c2cc(CC=C)cc(CN3CCN(CCCO)CC3)c2O)c1 | > 20 | > 20 | > 20 | – |

| Structure (SMILES) | IC50 (HCC827) [µM] | IC50 (NCI-H460) [µM] | IC50 (NCI-H1975) [µM] | also measured |
| --- | --- | --- | --- | --- |
| C=CCc1ccc(O)c(-c2cc(CC=C)cc(CN3CCC(NC(=O)OC(C)(C)C)CC3)c2O)c1 | 12.9 | 17.5 | 15.8 | – |
| C=CCc1ccc(O)c(-c2cc(CC=C)cc(CN3CCN(Cc4ccccc4)CC3)c2O)c1 | > 20 | > 20 | > 20 | – |
| C=CCc1ccc(O)c(-c2cc(CC=C)cc(CN3CCN(C(=O)OCC)CC3)c2O)c1 | > 20 | > 20 | > 20 | – |
| C=CCc1ccc(O)c(-c2cc(CC=C)cc(CN3CCCC(NC(=O)OC(C)(C)C)C3)c2O)c1 (centres undefined) | 15.5 | 16.4 | 13.9 | – |
| C=CCc1ccc(O)c(-c2cc(CC=C)cc(CN3CCCC(C)C3)c2O)c1 (centres undefined) | > 20 | > 20 | > 20 | – |
| C=CCc1ccc(O)c(-c2cc(O)ccc2O)c1 [RANDAIOL] | > 40 | > 40 | > 40 | – |
| C=CCc1ccc(O)c(-c2cc(CC=C)cc(CN3CCN(C(=O)OC(C)(C)C)CC3)c2O)c1 | > 20 | > 20 | > 20 | – |
| C=CCc1ccc(O)c(-c2ccc(O)c(CC3CO3)c2)c1 (centres undefined) | > 40 | > 40 | > 40 | – |
| C=CCc1ccc(O)c(-c2cc(CC=C)ccc2O)c1 [MAGNOLOL] | > 40 | > 40 | > 40 | IC50 (NCI-H441): 58.7 µM; IC50 (PC-9): 69 µM; IC50 (NCI-H1650): 56.6 µM; IC50 [1]: 78.2 µM; solubility [2]: < 10 µg/mL; IC50 (NCI-H358): 61.2 µM; IC50 (A549): 57.4 µM |
| C=CCc1ccc(O)c(-c2cc(CC=C)cc(CN3CCN(C=O)CC3)c2O)c1 | > 20 | > 20 | > 20 | – |
| C=CCc1ccc(O)c(-c2cc(CC=C)cc(CN3CCCCC3)c2O)c1 | > 20 | > 20 | > 20 | – |
| C=CCc1ccc(O)c(-c2cc(CC=C)cc(CN3CCN(c4ccccc4)CC3)c2O)c1 | > 20 | > 20 | > 20 | – |
| C=CCc1ccc(O)c(-c2cc(CC=C)cc(CN3CCN(C(=O)N(C)C)CC3)c2O)c1 | > 20 | > 20 | > 20 | – |
| C=CCc1ccc(O)c(-c2cc(CC=C)cc([C@@H]3C=C(C)CC[C@H]3C(C)C)c2O)c1 | 15.8 | 18.6 | 16.6 | solubility [2]: < 10 µg/mL |
| C=CCc1ccc(O)c(-c2cc(CC=C)cc(CN3CCC(NC(=O)C=C)CC3)c2O)c1 | > 20 | > 20 | > 20 | – |
| C=CCc1ccc(O)c(-c2ccc(O)c(CC(O)CO)c2)c1 (centres undefined) | > 40 | > 40 | > 40 | – |
| C=CCc1cc(-c2cc(C(=O)O)ccc2O)ccc1O | > 40 | > 40 | > 40 | – |
| C=CCc1ccc(O)c(-c2cc(CC=C)cc(CN3CCN(C(C)C)CC3)c2O)c1 | > 20 | > 20 | > 20 | – |
| C=CCc1ccc(O)c(-c2cc(CC=C)cc(CN3CCCC(CO)C3)c2O)c1 (centres undefined) | > 20 | > 20 | > 20 | – |
| OCC(O)Cc1ccc(O)c(-c2cc(CC(O)CO)ccc2O)c1 (centres undefined) | > 40 | > 40 | > 40 | – |
| C=CCc1ccc(O)c(-c2cc(CC=C)cc(CN3CCN(CCO)CC3)c2O)c1 | 18.9 | 17.4 | 16.5 | – |
| C=CCc1ccc(O)c(-c2cc(CC=C)cc(CN3CCN(C(=O)C4CC4)CC3)c2O)c1 | > 20 | > 20 | > 20 | – |
| C=CCc1ccc(O)c(-c2cc(CC=C)cc(CN3CCN(C(C)=O)CC3)c2O)c1 | > 20 | > 20 | > 20 | – |
